# From PMC3334918, “Mutagenesis and Functional Studies with Succinate Dehydrogenase Inhibitors in the Wheat Pathogen Mycosphaerella graminicola” (PLoS ONE, 2012)
# Several values for one entry are separate records, joined by “and”; a condition that tells them apart may be missing. Equal entries are not always repeated.
# How the values were obtained:
# Assay in all cases: in vivo sensitivity, liquid culture growth (AE media)
# Format in all cases: cell-based, Mycosphaerella graminicola
# [1] = tested on: M. graminicola strain Flu9 (SDHC_R87C); conditions: C_R87C, ratio IC50mutant/IC50WT
# Method: (§1) To explore the sensitivity profiles conferred by amino acid substitutions at the cellular and mitochondrial level, we determined sensitivity towards 4 different compounds for 26 of the identified substitution types both in vivo using liquid culture growth (AE media) and in vitro using purified mitochondria and the succinate: Q0/DCPIP activity test (Table 3). […] Resistance factors (RF) were determined as the ratio IC50mutant/IC50WT. […] Qp site mutations are well known to influence SDH enzyme activity and stability upon catalysis, [13], [38], [41].
# (§2) Conidial cells were collected from 4 day old V8 agar plates (cultured at 18°C in the dark) using liquid AE and a cell spreader. Cell density was determined and cells re-suspended to a concentration of 5×10^5 cells ml^−1 in AE media. Sterile 96 wells microtiter plates with lids (Costar) were inoculated with 198 µl of this cell suspension (10^5 cells per well) and 2 µl of inhibitor (100× in DMSO). Final inhibitor concentrations were between 0.95 nM and 1 mM with uniform 4× dilution factor steps (11 inhibitor concentrations+1 DMSO control). Plates were incubated for 6 days at 19°C in the dark before cells were re-suspended and measured for growth (OD600 nm). IC50 values were determined by non linear curve fitting on the basis of measured OD values versus log inhibitor concentrations (GraphPad Prism 5.0 software).
# [2] = tested on: M. graminicola strain Flu4 (SDHC_A84V); conditions: C_A84V, ratio IC50mutant/IC50WT
# Method: as §1, §2
# [3] = tested on: M. graminicola strain Bos64 (SDHC_T79I); conditions: C_T79I, ratio IC50mutant/IC50WT
# Method: as §1, §2
# [4] = tested on: M. graminicola strain Flu110 (SDHB_P220T); conditions: B_P220T, ratio IC50mutant/IC50WT
# Method: as §1, §2
# [5] = tested on: M. graminicola strain Flu33 (SDHB_N271K); conditions: B_N271K, ratio IC50mutant/IC50WT
# Method: as §1, §2
# [6] = tested on: M. graminicola strain Flu41 (SDHB_S218F); conditions: B_S218F, ratio IC50mutant/IC50WT
# Method: as §1, §2
# [7] = tested on: M. graminicola strain Cbx12 (SDHC_L85P); conditions: C_L85P, ratio IC50mutant/IC50WT
# Method: as §1, §2
# [8] = tested on: M. graminicola strain Cbx96 (SDHB_H267N); conditions: B_H267N, ratio IC50mutant/IC50WT
# Method: as §1, §2
# [9] = tested on: M. graminicola strain Flu75 (SDHB_P220L); conditions: B_P220L, ratio IC50mutant/IC50WT
# Method: as §1, §2
# [10] = tested on: M. graminicola strain Ol50 (SDHC_V88D); conditions: C_V88D, ratio IC50mutant/IC50WT
# Method: as §1, §2
# [11] = tested on: M. graminicola strain Cbx56 (SDHB_R265P); conditions: B_R265P, ratio IC50mutant/IC50WT
# Method: as §1, §2
# [12] = tested on: M. graminicola strain Bos59 (SDHB_H267Q); conditions: B_H267Q, ratio IC50mutant/IC50WT
# Method: as §1, §2
# [13] = tested on: M. graminicola strain Flu21 (SDHC_A84I); conditions: C_A84I, ratio IC50mutant/IC50WT
# Method: as §1, §2
# [14] = tested on: M. graminicola strain Cbx1 (SDHB_I269V); conditions: B_I269V, ratio IC50mutant/IC50WT
# Method: as §1, §2
# [15] = tested on: M. graminicola strain Cbx67 (SDHD_D129G); conditions: D_D129G, ratio IC50mutant/IC50WT
# Method: as §1, §2
# [16] = tested on: M. graminicola strain Cbx29 (SDHB_H267L); conditions: B_H267L, ratio IC50mutant/IC50WT
# Method: as §1, §2
# [17] = tested on: M. graminicola strain Izm1 (SDHC_H152R); conditions: C_H152R, ratio IC50mutant/IC50WT
# Method: as §1, §2
# [18] = tested on: M. graminicola strain Flu29 (SDHD_D129T); conditions: D_D129T, ratio IC50mutant/IC50WT
# Method: as §1, §2
# [19] = tested on: M. graminicola strain Cbx101 (SDHD_D129S); conditions: D_D129S, ratio IC50mutant/IC50WT
# Method: as §1, §2
# [20] = tested on: M. graminicola strain Izm7 (SDHC_N86K); conditions: C_N86K, ratio IC50mutant/IC50WT
# Method: as §1, §2
# [21] = tested on: M. graminicola strain Cbx22 (SDHD_D129E); conditions: D_D129E, ratio IC50mutant/IC50WT
# Method: as §1, §2
# [22] = tested on: M. graminicola strain Flu1 (SDHC_S83G); conditions: C_S83G, ratio IC50mutant/IC50WT
# Method: as §1, §2
# [23] = tested on: M. graminicola strain Cbx106 (SDHB_N225H); conditions: B_N225H, ratio IC50mutant/IC50WT
# Method: as §1, §2
# [24] = tested on: M. graminicola strain Cbx28 (SDHB_H267Y); conditions: B_H267Y, strain Cbx28; ratio IC50mutant/IC50WT
# Method: as §1, §2
# [25] = tested on: M. graminicola strain Flu7 (SDHB_N225I); conditions: B_N225I, ratio IC50mutant/IC50WT
# Method: as §1, §2
# [26] = tested on: M. graminicola strain Cbx76 (SDHC_H145R); conditions: C_H145R, ratio IC50mutant/IC50WT
# Method: as §1, §2
structure (smiles),measurement,setting,value
CC(C)C1C2CCC1c1c(NC(=O)c3cn(C)nc3C(F)F)cccc12 (centres unmarked) [Isopyrazam],Resistance Factors (RFs) in vivo,[1],3.7
same,Resistance Factors (RFs) in vivo,[2],3.5
same,Resistance Factors (RFs) in vivo,[3],15.8
same,Resistance Factors (RFs) in vivo,[4],3.8
same,Resistance Factors (RFs) in vivo,[5],5.7
same,Resistance Factors (RFs) in vivo,[6],15.0
same,Resistance Factors (RFs) in vivo,[7],10.0
same,Resistance Factors (RFs) in vivo,[8],4.5
same,Resistance Factors (RFs) in vivo,[9],4.8
same,Resistance Factors (RFs) in vivo,[10],36.5
same,Resistance Factors (RFs) in vivo,[11],7.6
same,Resistance Factors (RFs) in vivo,[12],12.5
same,Resistance Factors (RFs) in vivo,[13],8.8
same,Resistance Factors (RFs) in vivo,[14],5.0
same,Resistance Factors (RFs) in vivo,[15],22.9
same,Resistance Factors (RFs) in vivo,[16],152.2
same,Resistance Factors (RFs) in vivo,[17],133.9
same,Resistance Factors (RFs) in vivo,[18],33 and 33.5
same,Resistance Factors (RFs) in vivo,[19],10.8
same,Resistance Factors (RFs) in vivo,[20],464.4
same,Resistance Factors (RFs) in vivo,[21],6.8
same,Resistance Factors (RFs) in vivo,[22],61.2
same,Resistance Factors (RFs) in vivo,[23],13.6
same,Resistance Factors (RFs) in vivo,[24],16.1
same,Resistance Factors (RFs) in vivo,[25],15.0
same,Resistance Factors (RFs) in vivo,[26],27.6
